Data: BigSolDB 2.1

NC(=O)c1nc(F)cnc1O
solubility (mole fraction)
Settings	293.15 K	298.15 K	303.15 K	308.15 K	313.15 K	318.15 K	323.15 K	328.15 K	333.15 K
in DMF	0.0109	0.0116	0.0128	0.0133	0.0156	0.0183	0.0212	0.0234	0.026
in acetone	0.00417	0.00458	0.00492	0.00523	0.00585	0.00638	0.00699	0.00772	0.00859
in acetonitrile	0.00183	0.00188	0.00193	0.00207	0.00226	0.00242	0.00268	0.00285	0.00293
in dichloromethane	0.00231	0.00271	0.00277	0.00284	0.00328	0.00359	0.00398	0.00462	0.00514
in ethanol	0.00206	0.00238	0.00252	0.00279	0.00318	0.00339	0.00366	0.00395	0.00458
in ethyl acetate	0.0036	0.00396	0.00442	0.00449	0.00497	0.00525	0.00572	0.00599	0.00662
in isopropanol	0.00185	0.00196	0.00209	0.00236	0.00268	0.00284	0.00315	0.00318	0.00326
in methanol	0.00147	0.00152	0.00156	0.00163	0.00169	0.00176	0.00182	0.00195	0.00199
in methyl acetate	0.00397	0.00408	0.00464	0.00499	0.00521	0.00564	0.00597	0.00624	0.00778
in n-butanol	0.00263	0.00296	0.00318	0.00346	0.00385	0.00409	0.00463	0.00499	0.00537
in n-butyl acetate	0.00502	0.00513	0.00582	0.00641	0.00681	0.00741	0.00839	0.00894	0.00986
in n-propanol	0.00188	0.00197	0.00225	0.00258	0.00276	0.00299	0.00316	0.00349	0.00395
